For data set [1], the target named is T1, yCBS (Saccharomyces cerevisiae, UniProt P32582).
T1 construct: gene CYS4
T1 sequence (P32582 1-507): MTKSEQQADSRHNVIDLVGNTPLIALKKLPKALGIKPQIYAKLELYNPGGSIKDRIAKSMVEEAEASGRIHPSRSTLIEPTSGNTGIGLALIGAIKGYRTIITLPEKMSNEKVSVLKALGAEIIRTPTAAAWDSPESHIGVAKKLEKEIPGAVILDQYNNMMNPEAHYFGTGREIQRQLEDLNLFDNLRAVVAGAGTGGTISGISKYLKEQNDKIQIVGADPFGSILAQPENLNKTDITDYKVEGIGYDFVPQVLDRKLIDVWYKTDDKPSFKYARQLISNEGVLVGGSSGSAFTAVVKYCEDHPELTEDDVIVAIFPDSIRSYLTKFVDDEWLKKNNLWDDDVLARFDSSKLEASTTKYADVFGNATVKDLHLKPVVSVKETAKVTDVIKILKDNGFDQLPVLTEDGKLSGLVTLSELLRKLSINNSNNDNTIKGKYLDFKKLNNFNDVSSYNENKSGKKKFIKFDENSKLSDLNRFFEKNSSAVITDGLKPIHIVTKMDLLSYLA
The data set can be described thus: isothermal titration calorimetry. Format: binding. In general terms: Isothermal titration calorimetry measures the heat released or taken up as one component is titrated into another.

The target in data set [2] is T2, hCBS (Homo sapiens, UniProt P35520).
T2 construct: gene CBS; full-length, permanent C-terminal 6xHis, E. coli, homotetramer of 63 kDa polypeptides, heme-containing
T2 sequence (P35520 1-551): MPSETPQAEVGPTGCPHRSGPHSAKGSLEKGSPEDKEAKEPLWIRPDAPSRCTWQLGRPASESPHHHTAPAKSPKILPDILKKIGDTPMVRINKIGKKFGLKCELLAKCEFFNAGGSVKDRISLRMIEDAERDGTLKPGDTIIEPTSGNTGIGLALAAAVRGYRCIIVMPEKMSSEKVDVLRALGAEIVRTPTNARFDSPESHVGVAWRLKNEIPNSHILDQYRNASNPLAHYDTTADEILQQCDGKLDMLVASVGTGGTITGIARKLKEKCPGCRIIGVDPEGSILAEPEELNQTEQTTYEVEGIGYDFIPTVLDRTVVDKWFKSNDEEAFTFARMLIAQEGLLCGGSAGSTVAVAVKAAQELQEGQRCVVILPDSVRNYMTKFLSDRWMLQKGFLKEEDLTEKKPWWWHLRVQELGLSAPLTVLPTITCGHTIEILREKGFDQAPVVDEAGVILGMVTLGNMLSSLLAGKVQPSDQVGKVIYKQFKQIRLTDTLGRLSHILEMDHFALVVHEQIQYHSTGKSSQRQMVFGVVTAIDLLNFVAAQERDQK
The data set can be described thus: […]serine radioisotope assay of canonical reaction (activation). In kind it is biochemical. The note with it: 10 mM L-serine, 10 mM L-homocysteine, 0.2 mM PLP, pH 8.6, 37 °C; allosteric activator.

For data set [3], the target named is T1, yCBS. The data set can be described thus: differential scanning calorimetry. Particulars: 100 µM AdoMet, 20 mM HEPES pH 7.4, 50 µM PLP, 3 °C/min. Format: binding. A general note: DSC measures the heat that a sample takes up or gives off during a temperature scan.
The target of data set [4] is T2, hCBS. The data set can be described thus: […]serine radioisotope assay of canonical reaction. Format: biochemical. The note with it: 10 mM L-serine, 10 mM L-homocysteine, 0.2 mM PLP, pH 8.6, 37 °C; no AdoMet.
Data set [5] has as its target T3, dCBS (Drosophila melanogaster, UniProt Q9VRD9).
T3 construct: gene Cbs; full-length, permanent C-terminal 6xHis (pET28-C-dCBS), E. coli Rosetta2 (DE3), homodimer, heme-containing
T3 sequence (Q9VRD9 1-522): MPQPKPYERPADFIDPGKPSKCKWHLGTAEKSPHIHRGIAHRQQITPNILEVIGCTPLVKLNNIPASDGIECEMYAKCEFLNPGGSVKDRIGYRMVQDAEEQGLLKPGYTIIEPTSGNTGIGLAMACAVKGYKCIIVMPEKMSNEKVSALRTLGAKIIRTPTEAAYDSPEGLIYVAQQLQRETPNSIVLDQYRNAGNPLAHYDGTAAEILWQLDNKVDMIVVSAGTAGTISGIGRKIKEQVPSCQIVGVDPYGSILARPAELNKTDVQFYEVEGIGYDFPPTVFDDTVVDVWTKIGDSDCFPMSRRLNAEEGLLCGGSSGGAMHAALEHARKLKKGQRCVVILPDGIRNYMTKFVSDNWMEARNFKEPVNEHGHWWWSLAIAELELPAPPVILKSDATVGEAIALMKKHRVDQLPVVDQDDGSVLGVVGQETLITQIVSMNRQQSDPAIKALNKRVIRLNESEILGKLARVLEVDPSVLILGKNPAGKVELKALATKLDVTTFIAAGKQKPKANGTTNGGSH
Described as above. Format: biochemical. Particulars: 10 mM L-serine, 10 mM L-homocysteine, 0.2 mM PLP, pH 8.6, 37 °C.

Data set [6] concerns the molecule itself. The data set can be described thus: native gel or EMSA; purified enzymes (100 ng CBS per lane) separated in a 4–15% polyacrylamide gradient gel under native conditions, transferred to PVDF and probed with monoclonal anti-6xHis antibody; oligomeric state of each enzyme. (In general: A gel shift assay detects complexes by their altered migration in electrophoresis.)

The target in data set [7] is T4, human cystathionine beta-synthase, full-length (human), P35520.
T4 chain: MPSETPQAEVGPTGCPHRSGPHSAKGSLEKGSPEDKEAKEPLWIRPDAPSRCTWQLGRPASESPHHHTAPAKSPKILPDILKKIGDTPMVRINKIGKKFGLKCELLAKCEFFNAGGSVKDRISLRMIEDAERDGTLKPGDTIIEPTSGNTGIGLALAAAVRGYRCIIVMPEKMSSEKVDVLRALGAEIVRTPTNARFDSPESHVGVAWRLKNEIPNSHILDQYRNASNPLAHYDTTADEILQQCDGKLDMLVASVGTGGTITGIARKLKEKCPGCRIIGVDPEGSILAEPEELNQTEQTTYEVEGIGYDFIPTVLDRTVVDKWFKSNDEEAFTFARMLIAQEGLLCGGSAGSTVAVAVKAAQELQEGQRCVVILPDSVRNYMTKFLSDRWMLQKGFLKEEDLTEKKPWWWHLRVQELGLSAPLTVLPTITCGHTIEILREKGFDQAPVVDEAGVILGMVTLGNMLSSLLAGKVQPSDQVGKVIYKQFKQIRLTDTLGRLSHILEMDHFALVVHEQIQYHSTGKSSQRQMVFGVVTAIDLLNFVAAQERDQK
Described as above. Particulars: remark: other sources report otherwise.

In general, Kd refers to the constant that tells how readily two partners part at equilibrium. The low end stands for higher affinity, the high end for lower affinity. As a reminder, the stoichiometry N is the number of molecules, sites or subunits per partner or assembly.

`C[S+](CC[C@H](N)C(=O)O)C[C@H]1O[C@@H](n2cnc3c(N)ncnc32)[C@H](O)[C@@H]1O` (stereo partly shown) [AdoMet] had a Kd in data set [1] of 5 ± 0.5 µM. Further, the “fold increase in specific activity at 300 μM” value in data set [2] is ~ 3.2 fold. Further, the dTm in data set [3] is ~ 0.2 °C.

For `N[C@@H](CO)C(=O)O` [Ser], the “[14C]serine radioisotope assay of canonical reaction” value in data set [4] is “specific activity compared to hCBS in the canonical condensation of Ser and Hcy”; in data set [5] it was “specific activity compared to hCBS in the canonical condensation of Ser and Hcy”.

B1: Drosophila melanogaster cystathionine beta-synthase, full-length (enzyme, UniProt Q9VRD9 1-522, looked up)
chain: MPQPKPYERPADFIDPGKPSKCKWHLGTAEKSPHIHRGIAHRQQITPNILEVIGCTPLVKLNNIPASDGIECEMYAKCEFLNPGGSVKDRIGYRMVQDAEEQGLLKPGYTIIEPTSGNTGIGLAMACAVKGYKCIIVMPEKMSNEKVSALRTLGAKIIRTPTEAAYDSPEGLIYVAQQLQRETPNSIVLDQYRNAGNPLAHYDGTAAEILWQLDNKVDMIVVSAGTAGTISGIGRKIKEQVPSCQIVGVDPYGSILARPAELNKTDVQFYEVEGIGYDFPPTVFDDTVVDVWTKIGDSDCFPMSRRLNAEEGLLCGGSSGGAMHAALEHARKLKKGQRCVVILPDGIRNYMTKFVSDNWMEARNFKEPVNEHGHWWWSLAIAELELPAPPVILKSDATVGEAIALMKKHRVDQLPVVDQDDGSVLGVVGQETLITQIVSMNRQQSDPAIKALNKRVIRLNESEILGKLARVLEVDPSVLILGKNPAGKVELKALATKLDVTTFIAAGKQKPKANGTTNGGSH
notes: Cloned by NcoI and HindIII into pET-28a; also called dCBS; source: E. coli Rosetta2 (DE3), purified (TALON, DEAE Sepharose); not shown: 6xHis, C-terminal, kept
Regarding B1, the “stoichiometry N” value in data set [6] is 2.

B2: yCBS L345*, truncated Saccharomyces cerevisiae cystathionine beta-synthase lacking the regulatory domain (domain or fragment, UniProt P32582 1-344, looked up)
chain: MTKSEQQADSRHNVIDLVGNTPLIALKKLPKALGIKPQIYAKLELYNPGGSIKDRIAKSMVEEAEASGRIHPSRSTLIEPTSGNTGIGLALIGAIKGYRTIITLPEKMSNEKVSVLKALGAEIIRTPTAAAWDSPESHIGVAKKLEKEIPGAVILDQYNNMMNPEAHYFGTGREIQRQLEDLNLFDNLRAVVAGAGTGGTISGISKYLKEQNDKIQIVGADPFGSILAQPENLNKTDITDYKVEGIGYDFVPQVLDRKLIDVWYKTDDKPSFKYARQLISNEGVLVGGSSGSAFTAVVKYCEDHPELTEDDVIVAIFPDSIRSYLTKFVDDEWLKKNNLWDDDV
notes: cystathionine beta-synthase, Saccharomyces cerevisiae, C-terminally truncated at L345 (pET28-C-yCBS L345*); Cloned by NcoI and XhoI into pET-28a; source: E. coli Rosetta2 (DE3), purified (TALON, DEAE Sepharose); not shown: 6xHis, C-terminal, kept
For B2, the “stoichiometry N” value in data set [6] was 2.

B3: 45 kDa hCBS (hCBS V414*), truncated human cystathionine beta-synthase lacking the regulatory domain (domain or fragment, UniProt P35520 1-413, looked up)
chain: MPSETPQAEVGPTGCPHRSGPHSAKGSLEKGSPEDKEAKEPLWIRPDAPSRCTWQLGRPASESPHHHTAPAKSPKILPDILKKIGDTPMVRINKIGKKFGLKCELLAKCEFFNAGGSVKDRISLRMIEDAERDGTLKPGDTIIEPTSGNTGIGLALAAAVRGYRCIIVMPEKMSSEKVDVLRALGAEIVRTPTNARFDSPESHVGVAWRLKNEIPNSHILDQYRNASNPLAHYDTTADEILQQCDGKLDMLVASVGTGGTITGIARKLKEKCPGCRIIGVDPEGSILAEPEELNQTEQTTYEVEGIGYDFIPTVLDRTVVDKWFKSNDEEAFTFARMLIAQEGLLCGGSAGSTVAVAVKAAQELQEGQRCVVILPDSVRNYMTKFLSDRWMLQKGFLKEEDLTEKKPWWWHLR
notes: cystathionine beta-synthase, Homo sapiens, C-terminally truncated by a stop at V414 (regulatory domain removed); not shown: 6xHis, C-terminal, kept
Consider B3, for which the “stoichiometry N” value in data set [6] came out at 2.

B4: Saccharomyces cerevisiae cystathionine beta-synthase, full-length (enzyme, UniProt P32582 1-507, looked up)
chain: MTKSEQQADSRHNVIDLVGNTPLIALKKLPKALGIKPQIYAKLELYNPGGSIKDRIAKSMVEEAEASGRIHPSRSTLIEPTSGNTGIGLALIGAIKGYRTIITLPEKMSNEKVSVLKALGAEIIRTPTAAAWDSPESHIGVAKKLEKEIPGAVILDQYNNMMNPEAHYFGTGREIQRQLEDLNLFDNLRAVVAGAGTGGTISGISKYLKEQNDKIQIVGADPFGSILAQPENLNKTDITDYKVEGIGYDFVPQVLDRKLIDVWYKTDDKPSFKYARQLISNEGVLVGGSSGSAFTAVVKYCEDHPELTEDDVIVAIFPDSIRSYLTKFVDDEWLKKNNLWDDDVLARFDSSKLEASTTKYADVFGNATVKDLHLKPVVSVKETAKVTDVIKILKDNGFDQLPVLTEDGKLSGLVTLSELLRKLSINNSNNDNTIKGKYLDFKKLNNFNDVSSYNENKSGKKKFIKFDENSKLSDLNRFFEKNSSAVITDGLKPIHIVTKMDLLSYLA
notes: Cloned by NcoI and XhoI into pET-28a; also called yCBS; yCBS WT; source: E. coli Rosetta2 (DE3), purified (TALON, DEAE Sepharose); not shown: 6xHis, C-terminal, kept
As for B4, the “stoichiometry N” value in data set [6] is 4.

B5: human cystathionine beta-synthase, full-length, P35520 1-551 (enzyme)
chain: MPSETPQAEVGPTGCPHRSGPHSAKGSLEKGSPEDKEAKEPLWIRPDAPSRCTWQLGRPASESPHHHTAPAKSPKILPDILKKIGDTPMVRINKIGKKFGLKCELLAKCEFFNAGGSVKDRISLRMIEDAERDGTLKPGDTIIEPTSGNTGIGLALAAAVRGYRCIIVMPEKMSSEKVDVLRALGAEIVRTPTNARFDSPESHVGVAWRLKNEIPNSHILDQYRNASNPLAHYDTTADEILQQCDGKLDMLVASVGTGGTITGIARKLKEKCPGCRIIGVDPEGSILAEPEELNQTEQTTYEVEGIGYDFIPTVLDRTVVDKWFKSNDEEAFTFARMLIAQEGLLCGGSAGSTVAVAVKAAQELQEGQRCVVILPDSVRNYMTKFLSDRWMLQKGFLKEEDLTEKKPWWWHLRVQELGLSAPLTVLPTITCGHTIEILREKGFDQAPVVDEAGVILGMVTLGNMLSSLLAGKVQPSDQVGKVIYKQFKQIRLTDTLGRLSHILEMDHFALVVHEQIQYHSTGKSSQRQMVFGVVTAIDLLNFVAAQERDQK
Regarding B5, in data set [7], the stoichiometry N came to 4.

The values above are taken from PMC4133348, “Domain Organization, Catalysis and Regulation of Eukaryotic Cystathionine Beta-Synthases” (PLoS ONE, 2014).
